We go through one molecule from US20210388213A1, “PROCESS FOR PRODUCING AQUEOUS COATING COMPOSITIONS” (CELANESE INTERNATIONAL CORPORATION, priority 2018, published 2021).

SMILES strings stand for the structures.

For this test, the system named is mixture of bacteria, yeasts and fungi/moulds (inoculum). The test is described as follows: Challenge test of preserved polymer dispersions with mixed inoculum (repeated up to six cycles). The test is classed as cell-based. Particulars: at concentrations of <15 ppm in products such as aqueous coating compositions. The method, then:
100 g of the dispersions listed above are weighed into sterile sample bottles. To each sample 1% by weight of an inoculum is added and incubated at 30° C. for 7 days. As inoculum, a suspension in water which contains the following concentrations is used: Bacteria: 8.0×10^8−2.0×10^9 cfu/cm^3 Yeasts/moulds: 8.0×10^6−2.0×10^7 cfu/cm^3 A mixture of the following bacteria, yeasts and fungi/moulds are used for the preparation of the inoculum: Bacteria mixture of: Aeromonas hydrophila (sorbia, BAM 485) Alcaligenes faecalis (BAM 486) Providencia rettgeri (BAM 488) Pseudomonas aeruginosa (BAM 489) Pseudomonas sp (BAM 490) Escherichia coli (DSM 13631) Staphylococcus aureus (DSM 346) Micrococcus Luteus (DSM 20030) Yeast mixture of: Rhodotorula rubra (DSM 13621) Saccharomyces cerevisiae (DSM 13622) Issatchenkia orientalis (DSM 6128) Filamentous Fungy mixture of: Aspergillus terréus (DSM 13630) Geotrichum candidum (DSM 13629) Fusarium Solani (DSM 13635) After 7 days the microbial contamination remaining in the samples is determined by streaking the samples out onto Trypticase Sel Agar (TSA) and on Malt Extra Agar (MEA) as nutrient media and incubated at 30° C. for 7 days. The level of growing is measured by using a rating of 0 for no growth up to a rating of 3 for full growth. The test is passed in case no growth is observed which means a rating of 0 on TSA and MEA nutrient media. […]

Regarding `Cn1sc(Cl)cc1=O` [CIT, 5-chloro-2-methyl-4-isothiazolin-3-one], the “protection against microbial attack” value is “not sufficient”.
